Source: patent publication US20230218606A1, “USE OF 4-AMINOQUINOLINE COMPOUND IN TREATMENT OF CORONAVIRUS INFECTION” (priority 2020, published 2023)
Like-named read-outs stand apart in the source and are kept apart here.

Tests used:
SARS-CoV-2 [1] = assay: microbe, parasite or virus in culture; assay type: cell-based
SARS-CoV-2 [2] = assay: Example 3: co-localization of SARS-CoV-2 virus particles with early endosomes or endolysosomes (immunofluorescence); assay type: cell-based; details: 50 µM drug, veroE6 cells, MOI of 10, 90 min at 37° C.
Procedure: (at MOI of 10); • 3) the veroE6 cells were washed twice with PBS (purchased from Gibco, Catalog No. C10010500BT) to remove unbound virus particles, freshly pre-warmed MEM culture medium containing 2% FBS was added, and then the veroE6 cells were incubated at 37° C. for 90 min; • 4) the cells were fixed, and the immunofluorescence staining of cells was performed by using anti-virus NP protein antibody (red) (preserved by Wuhan Institute of Virology, Chinese Academy of Sciences) and anti-early endosomal protein EEA antibody (green) (purchased from Cell Signaling Technology, Catalog No. 48453) or anti-lysosomal protein LAMP antibody (green) (purchased from Cell Signaling Technology company, Catalog No. 3243); the nuclei were stained with Hoechst (blue) (purchased from Invitrogen company, Catalog No. H21492); • 5) quantitative analysis of co-localization of virus particles and endosomes of the cells in each group was performed, and co-localization rate was calculated.

Vero-E6 cells = details: Example 1, all test concentrations
Procedure: (§1) The cytotoxicity test of drugs was carried out by using CCK-8 kit (Beyotime). […] The original medium in the 96-well plate was discarded, 100 µL of the drug-containing MEM medium was taken and added to the cells, and three replicate wells were set for each concentration. A vehicle control (adding DMSO and medium to cells in wells, without adding drug) and a blank control (adding DMSO and medium to the wells, without cells) were set up. After the drug was added, the cells were incubated at 37° C. for 48 hours. • ③ 20 µL of CCK-8 solution (Beyotime) was added to the well to be tested, mixed gently without generating bubbles, and incubated subsequently at 37° C. for 2 hours. OD450 was read on a microplate reader (purchased from Molecular Devices, model: SpectraMax M5), and the reading was substituted into the following formula to calculate cell viability: • [formula] • Wherein, A was the reading of the microplate reader.

DENV-2 = details: cited from earlier work
[3] = system: Zika virus protease NS2B-NS3; details: read-out: inhibitory constant Ki; cited from earlier work
ZIKV = details: pregnant mice, 40 mg/kg/day intraperitoneally from first day after ZIKV infection, compared to PBS; cited from earlier work
in vitro = details: African green monkey
Procedure: as §1

Structure (SMILES)	inhibition of replication of SARS-CoV-2 virus genome in the infected supernatant (SARS-CoV-2 [1]; Example 1, at 50 µM, 16.67 µM and 5.56 µM)	EC50 (SARS-CoV-2 [1]; Severe acute respiratory syndrome coronavirus 2, Vero C1008, 48 h, read-out: half-maximal effective concentration (EC50)) [nM]	co-localization rate of virus particles and early endosomes (EES) (SARS-CoV-2 [2]) [%]	co-localization rate of virus particles and endolysosomes (ELs) (SARS-CoV-2 [2]) [%]	toxic effect on cells (cell viability) (Vero-E6 cells)	reduction of DENV-2 virus titer (DENV-2; A549 cell line, 50 to 80 µM) [times]	IC50 (DENV-2; A549 cells, read-out: IC50 for DENV-2 infected cells) [µM]	IC50 (DENV-2; Hepa1-6 cells, read-out: IC50 for DENV-2 infected cells) [µM]	IC50 (DENV-2; J774A.1 macrophages, read-out: IC50, inhibition of DENV-2 infection of macrophages) [µM]	IC50 (DENV-2; WS-1 cells, read-out: IC50 for DENV-2 infected cells) [µM]	Ki [3] [µM]	level of ZIKV infection in placenta (ZIKV)	CC50 at 48 h (in vitro) [µM]
CCN(CC)CCCC(C)Nc1ccnc2cc(Cl)ccc12 (stereo not drawn) [chloroquine phosphate]	could effectively inhibit the replication	1130	35.3	2.4	no toxic effect on cells at all concentrations								
CCN(CCO)CCCC(C)Nc1ccnc2cc(Cl)ccc12 (stereo not drawn) [hydroxychloroquine, 2-[[4-[(7-chloroquinolin-4-yl)amino]pentyl]ethylamino]-ethanol]			29.2	0.03		100	10.1 ± 1.6	12.9 ± 4.2	9.7 ± 1.3	12.9 ± 1.9	92.3 ± 11.9	lower level of ZIKV infection	> 250
